3 compounds from US7122203B2, “Stabilized formulations of 6-hydroxy-3-(-4-[2-(piperidin-1-yl) ethoxy]phenoxy)-2-(4-methoxyphenyl) benzo[b]thiophene and salts thereof” (Eli Lilly and Company, priority 2000, dated 2006) can be followed below.

Common to all, as to type: physicochemical
Data set [1] is described as follows: Physical stability of crystal forms (XRD at different relative humidities, variable temperature XRD). The procedure: XRD patterns were obtained on a […] powder diffractometer, equipped with a CuKα source (λ=1.54056 Å) and a Kevex solid-state detector, operating at 50 kV and 40 mA. Each sample was scanned between 4° and 35° in 2θ. Samples were allowed to equilibrate for at least 30 minutes at the desired temperature and/or relative humidity before data collection. Variable temperature X-ray powder diffraction patterns were obtained on a […] powder diffractometer which was equipped with a CuKα source (λ=1.54056 Å) operated at 50 kV and 40 mA with a scintillation detector and nickel filter. The powder was packed into a top-loading, recessed temperature controlled holder and a smooth surface was obtained for diffraction. The sample was scanned from 2 to 35° 2θ at 2.5 seconds per step size of 0.04° beginning at 25° C. after an equilibration time of 5 minutes. Subsequent scans were obtained at increasing temperature increments of 25° C. to a maximum of 125° C.

A short description of data set [2]: Aqueous solubility and dissolution rate of crystal forms.
Data set [3] in a line: Hygroscopicity / moisture sorption isotherms. To be noted: for water content: ambient relative humidities (about 50% R.H.); for water content / immediate weight gain (moisture): hydrochloride; for immediate weight gain (moisture): upon initial exposure to approximately 5% R.H. The protocol: Hygroscopicity measurements were made for F-I and F-III using the VTI method as follows. Each sample was dried under vacuum at 60° C. until no further weight loss was detected, at which time the sample chamber was brought to 0% relative humidity. Moisture sorption isotherms were obtained at 25° C. using a VTI vacuum moisture balance with the following conditions: sample size 10–15 mg, adsorption/desorption range 0–95% relative humidity, step interval 5%, sample interval 10 minutes.
Moisture Sorption Isotherms were generated using a VTI SGA-100 flow instrument. The samples were analyzed at 25° C. from 0–95% relative humidity (RH) for adsorption and from 95–5% RH for desorption in steps of 5% RH. The adsorption and desorption isotherms were generated as a graph of the % weight change vs. % RH.

`COc1ccc(-c2sc3cc(O)ccc3c2Oc2ccc(OCCN3CCCCC3)cc2)cc1.Cl` [F-I, 6-Hydroxy-3-(4-[2-(piperidin-1-yl)ethoxy]phenoxy)-2-(4-methoxyphenyl)benzo[b]thiophene hydrochloride]: the “physical stability over the entire relative humidity range” value in data set [1] is listed as “physically stable”. In addition, the “aqueous solubilities and dissolution rates of the two forms (F-I vs F-III)” value in data set [2] is recorded as “comparable”. Also, the water content entry in data set [3] is listed as “about 2.2%”. Besides, the “immediate weight gain (moisture)” value in data set [3] (25° C.) came out at 1.5%.

`COc1ccc(-c2sc3cc(O)ccc3c2Oc2ccc(OCCN3CCCCC3)cc2)cc1.Cl` [F-III, 6-Hydroxy-3-(4-[2-(piperidin-1-yl)ethoxy]phenoxy)-2-(4-methoxyphenyl)benzo[b]thiophene hydrochloride]: the “physical stability over the entire relative humidity range” value in data set [1] was “physically stable”. Also, the “aqueous solubilities and dissolution rates of the two forms (F-I vs F-III)” value in data set [2] is “comparable”. For the same compound, the water content result in data set [3] is “about 3.7%”. The “immediate weight gain (moisture)” value in data set [3] (25° C.) came out at 1.7%.

With `COc1ccc(-c2sc3cc(O)ccc3c2Oc2ccc(OCCN3CCCCC3)cc2)cc1.Cl` [F-V, 6-Hydroxy-3-(4-[2-(piperidin-1-yl)ethoxy]phenoxy)-2-(4-methoxyphenyl)benzo[b]thiophene hydrochloride], in data set [1] (ambient storage conditions), the “thermodynamic stability among known forms of arzoxifene hydrochloride” value is listed as “thermodynamically most stable known form”. For the same compound, the “change in diffraction pattern, variable temperature x-ray powder diffraction” value in data set [1] (up to 125° C.) was “no significant change”. In addition, the “higher aqueous solubility relative to F-III” value in data set [2] is on record as around 10%. For the same compound, the “weight increase in moisture sorption/desorption isotherm” value in data set [3] (over the range of 0–95% RH, 25° C.) is on record as 0.11%.
